This note sets out measurements from patent US20240190871A1, “KRASG12D INHIBITOR, PREPARATION METHOD THEREFOR AND APPLICATION THEREOF” (YA THERAPEUTICS INC, priority 2021, published 2024).

The test system of the assay is ATCC CRL-1739 (KRASG^12D mutant) cells. The assay can be described thus: Tumor cell proliferation inhibition experiment (Cell Titer-Glo, 72 hours). Type of assay: cell-based. Particulars: 72 hours incubation, 10% fetal bovine serum, ATP content. Here is the method:
The ATCC CRL-1739 (KRASG^12D mutant) cells were digested, centrifuged and resuspended, and the cell density was measured with a Scepter automatic cell counter. The cells were diluted to a solution containing 44,000 cells per milliliter, and the density-adjusted cell solution was 90 per well. Microliters were added to a 96-well culture plate. The 96-well plate was placed in a 37° C., 5% CO2 incubator. After the cells were cultured for 24 hours, different concentrations of the compounds to be tested were added. The cells were incubated with the compounds for 72 hours in the presence of 10% fetal bovine serum. Glo Luminescent Cell Viability Assay Kit (see manufacturer's instructions for details) was used to measure ATP content to assess cell growth inhibition. Briefly, 30 μl of Cell Titer-Glo reagent was added to each well, and the plate was shaken for 10 minutes to induce cell lysis. FluoroskanAscentFL (Thermo) assay records the […], and the maximum signal value is obtained from cells treated with DMSO for 72 hours. The minimum signal value was obtained from the medium alone (the number of cells was zero), and the % inhibition rate=(the maximum signal value compound signal value)/(the maximum signal value−the minimum signal value×100%, and the data were processed using Graphpadprism 5 software. By sigmoid Dose-response curve fitting to calculate IC50 value. “A” means IC50≤50 nM; “B” means 50<IC50≤500 nM; “C” means 500<IC50≤2000 nM; “D” means 2000<IC50
In general terms: In ATP-based viability assays light output follows the ATP content of the culture.
Consider `C[C@@H]1CNCCN1c1nc(OCCN(C)C)nc2nc(-c3c(O)cccc3F)c(F)cc12` [Compound 2, 2-(2-(2-(dimethylamino)ethoxy)-6-fluoro-4-((R)-2-methylpiperazin-1-yl)pyrido[2,3-d]pyrimidin-7-yl)-3-fluorophenol], for which the IC50 (commonly the concentration at which inhibition is half-maximal) was over 2000 nM.

With `C[C@@H]1CNCCN1c1nc(OC[C@@H]2CCCN2C)nc2nc(-c3ccccc3Cl)c(F)cc12` [Compound 32, 7-(2-chlorophenyl)-6-fluoro-4-((R)-2-methylpiperazin-1-yl)-2-(((S)-1-methylpyrrolidin-2-yl)methoxy)pyrido [2,3-d]pyrimidine], the 50% inhibitory concentration (IC50) is over 2000 nM.

The compound `C[C@@H]1CNCCN1c1nc(OC[C@@H]2CCCN2C)nc2nc(-c3cccc4ccccc34)c(F)cc12` [Compound 35, 6-fluoro-4-((R)-2-methylpiperazin-1-yl)-2-(((S)-1-methylpyrrolidin-2-yl)methoxy)-7-(naphthalen-1-yl)pyrido[2,3-d]pyrimidine] displayed an IC50 of over 2000 nM.

`C[C@@H]1CNCCN1c1nc(OC[C@@H]2CCCN2C)nc2nc(-c3ccc4ccccc4c3)c(F)cc12` [Compound 37, 6-fluoro-4-((R)-2-methylpiperazin-1-y1)-2-(((S)-1-methylpyrrolidin-2-yl)methoxy)-7-(naphthalen-2-yl)pyrido[2,3-d]pyrimidine] had an IC50 of over 2000 nM.

Take `C[C@@H]1CNCCN1c1nc(OC[C@@H]2CCCN2C)nc2nc(-c3cccc4ccsc34)c(F)cc12` [Compound 38, 7-(benzo[b]thiophen-7-yl)-6-fluoro-4-((R)-2-methylpiperazin-1-y1)-2-(((S)-1-methylpyrrolidin-2-yl)methoxy)pyrido [2,3-d]pyrimidine]: the IC50 is over 2000 nM.

`C[C@@H]1CNCCN1c1nc(OC[C@@H]2CCCN2C)nc2nc(-c3cccc4cccnc34)c(F)cc12` [Compound 39, 6-fluoro-4-((R)-2-methylpiperazin-1-yl)-2-(((S)-1-methylpyrrolidin-2-yl)methoxy)-7-(quinolin-8-yl)pyrido[2,3-d]pyrimidine] returned a concentration for half-maximal inhibition (IC50) of over 2000 nM.

`C[C@@H]1CNCCN1c1nc(OC[C@@H]2CCCN2C)nc2nc(-c3cccc4ccoc34)c(F)cc12` [Compound 40, 7-(benzofuran-7-yl)-6-fluoro-4-((R)-2-methylpiperazin-1-yl)-2-(((S)-1-methylpyrrolidin-2-yl)methoxy)pyrido [2,3-d]pyrimidine] gave an IC50 of over 2000 nM.

As to `C[C@@H]1CNCCN1c1nc(OC[C@@H]2CCCN2C)nc2nc(-c3cccc4c3ccn4C)c(F)cc12` [Compound 41, 6-fluoro-7-(1-methyl-1H-indol-4-yl)-4-((R)-2-methylpiperazin-1-yl)-2-(((S)-1-methylpyrrolidin-2-yl)methoxy)pyrido [2,3-d]pyrimidine], the 50% inhibitory concentration (IC50) is over 2000 nM.

As for `C[C@@H]1CNCCN1c1nc(OC[C@@H]2CCCN2C)nc2nc(-c3cccc4c3cnn4C)c(F)cc12` [Compound 42, 6-fluoro-7-(1-methyl-1H-indazol-4-yl)-4-((R)-2-methylpiperazin-1-yl)-2-(((S)-1-methylpyrrolidin-2-yl)methoxy)pyrido [2,3-d]pyrimidine], the 50% inhibitory concentration (IC50) was over 2000 nM.

As for `C[C@@H]1CNCCN1c1nc(OC[C@@H]2CCCN2C)nc2nc(-c3cccc4ccncc34)c(F)cc12` [Compound 43, 6-fluoro-7-(isoquinolin-8-y1)-4-((R)-2-methylpiperazin-1-y1)-2-(((S)-1-methylpyrrolidin-2-yl)methoxy)pyrido [2,3-d]pyrimidine], the IC50 fell in the range of 500 to 2000 nM.

As to `C[C@@H]1CNCCN1c1nc(OC[C@@H]2CCCN2C)nc2nc(-c3cccc4ncccc34)c(F)cc12` [Compound 44, 6-fluoro-4-((R)-2-methylpiperazin-1-y1)-2-(((S)-1-methylpyrrolidin-2-yl)methoxy)-7-(quinolin-5-yl)pyrido[2,3-d]pyrimidine], the IC50 was 500 to 2000 nM.
